Measurements reported in patent publication US9695155B2, “Herbicidal substituted pyrimidinyloxy benzene compounds” (E. I. DU PONT DE NEMOURS AND COMPANY, priority 2013, dated 2017).

Experiments:
Test in all cases: Test C preemergence
corn = type: in vivo, Zea mays
Outline: (§1)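 Whole-plant greenhouse test with surfactant-containing solvent formulation, applied preemergence to sown loam–sand pots or postemergence to 2–18 cm plants. Scored by eye 13 to 15 days on, 0–100 scale.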

Italian ryegrass = type: in vivo, Lolium multiflorum
Outline: as §1

velvetleaf = type: in vivo, Abutilon theophrasti
Outline: as §1

johnsongrass = type: in vivo, Sorghum halepense
Outline: as §1

galium = type: in vivo, Galium aparine
Outline: as §1

blackgrass = type: in vivo, Alopecurus myosuroides
Outline: as §1

barnyardgrass = type: in vivo, Echinochloa crus-galli
Outline: as §1

morningglory = type: in vivo, Ipomoea coccinea
Outline: as §1

wheat, winter = type: in vivo, Triticum aestivum
Outline: as §1

ragweed = type: in vivo, Ambrosia elatior
Outline: as §1

oilseed rape = type: in vivo, Brassica napus
Outline: as §1

soybean = type: in vivo, Glycine max
Outline: as §1

lambsquarters = type: in vivo, Chenopodium album
Outline: as §1

giant foxtail = type: in vivo, Setaria faberii
Outline: as §1

[1] = 16 g ai/ha, preemergence, scale 0 to 100 (0 no effect, 100 complete control)
[2] = 62 g ai/ha, preemergence, scale 0 (no effect) to 100 (complete control)
[3] = 125 g ai/ha, preemergence, scale 0 (no effect) to 100 (complete control)
[4] = Preemergence, 31 g ai/ha, scale 0 to 100, 0 no effect, 100 complete control

Question: Which results are given for Fc1cnc(Oc2cccc(C(F)F)c2-n2cc(C(F)(F)F)cn2)nc1 [Compound 164]?
Answer: Corn plant response rating (corn; [1]): 0; Corn plant response rating (corn; [2]): 5; Corn plant response rating (corn; [3]): 45; Plant response rating, Corn (corn; [4]): 5; Ryegrass, Italian plant response rating (Italian ryegrass; [1]): 0; Ryegrass, Italian plant response rating (Italian ryegrass; [2]): 65; Ryegrass, Italian plant response rating (Italian ryegrass; [3]): 98; Velvetleaf plant response rating (velvetleaf; [1]): 50; Velvetleaf plant response rating (velvetleaf; [2]): 100; Velvetleaf plant response rating (velvetleaf; [3]): 100; Johnsongrass plant response rating (johnsongrass; [1]): 5; Johnsongrass plant response rating (johnsongrass; [2]): 75; Johnsongrass plant response rating (johnsongrass; [3]): 80; Galium plant response rating (galium; [1]): 75; Galium plant response rating (galium; [2]): 95; Galium plant response rating (galium; [3]): 95; Plant response rating, Galium (galium; [4]): 100; Blackgrass plant response rating (blackgrass; [1]): 0; Blackgrass plant response rating (blackgrass; [2]): 90; Blackgrass plant response rating (blackgrass; [3]): 90; Plant response rating, Blackgrass (blackgrass; [4]): 50; Barnyardgrass plant response rating (barnyardgrass; [1]): 15; Barnyardgrass plant response rating (barnyardgrass; [2]): 98; Barnyardgrass plant response rating (barnyardgrass; [3]): 100; Plant response rating, Barnyardgrass (barnyardgrass; [4]): 70; Morningglory plant response rating (morningglory; [1]): 10; Morningglory plant response rating (morningglory; [2]): 85; Morningglory plant response rating (morningglory; [3]): 100; Wheat plant response rating (wheat, winter; [1]): 0; Wheat plant response rating (wheat, winter; [2]): 30; Wheat plant response rating (wheat, winter; [3]): 35; Ragweed plant response rating (ragweed; [1]): 0; Ragweed plant response rating (ragweed; [2]): 75; Ragweed plant response rating (ragweed; [3]): 85; Oilseed Rape plant response rating (oilseed rape; [1]): 70; Oilseed Rape plant response rating (oilseed rape; [2]): 100; Oilseed Rape plant response rating (oilseed rape; [3]): 100; Soybean plant response rating (soybean; [1]): 0; Soybean plant response rating (soybean; [2]): 65; Soybean plant response rating (soybean; [3]): 95; Lambsquarters plant response rating (lambsquarters; [1]): 70; Lambsquarters plant response rating (lambsquarters; [2]): 100; Lambsquarters plant response rating (lambsquarters; [3]): 98; Foxtail, Giant plant response rating (giant foxtail; [1]): 40; Foxtail, Giant plant response rating (giant foxtail; [2]): 100; Foxtail, Giant plant response rating (giant foxtail; [3]): 100; Plant response rating, Foxtail, Giant (giant foxtail; [4]): 95

Question: How did the plant injury at 16 g/ha (corn; Zea mays, pre-emergence, 16 g ai/ha, preemergence, scale 0 to 100 (0 no effect, 100 complete control), read-out: Corn plant response rating) turn out when N#Cc1cccc(Oc2ncc(Cl)cn2)c1-n1cc(OCC(F)(F)F)cn1 [Compound 274, 3-[(5-chloro-2-pyrimidinyl)oxy]-2-[4-(2,2,2-trifluoroethoxy)-1H-pyrazol-1-yl]benzonitrile] was run?
Answer: 5%

Question: What about the plant injury at 125 g/ha (corn; Zea mays, pre-emergence, 125 g ai/ha, preemergence, scale 0 (no effect) to 100 (complete control), read-out: Corn plant response rating) of the same compound?
Answer: 80%

Question: What about the Corn plant response rating (crop injury, 0 = no effect, 100 = complete kill) at 62 g/ha (corn; Zea mays, pre-emergence, Preemergence, 62 g ai/ha, scale 0 to 100, 0 no effect, 100 complete control) of the same compound?
Answer: 85%

Question: And the pest or weed control at 16 g/ha (Italian ryegrass; Lolium multiflorum, pre-emergence, 16 g ai/ha, preemergence, scale 0 to 100 (0 no effect, 100 complete control), read-out: Ryegrass, Italian plant response rating)?
Answer: 25%

Question: What about the pest or weed control at 125 g/ha (Italian ryegrass; Lolium multiflorum, pre-emergence, 125 g ai/ha, preemergence, scale 0 (no effect) to 100 (complete control), read-out: Ryegrass, Italian plant response rating) of the same compound?
Answer: 90%

Question: What about the pest or weed control at 62 g/ha (Italian ryegrass; Lolium multiflorum, pre-emergence, Preemergence, 62 g ai/ha, scale 0 to 100, 0 no effect, 100 complete control, read-out: Plant response rating, Ryegrass, Italian) of the same compound?
Answer: 90%

Question: What about the pest or weed control at 16 g/ha (velvetleaf; Abutilon theophrasti, pre-emergence, 16 g ai/ha, preemergence, scale 0 to 100 (0 no effect, 100 complete control), read-out: Velvetleaf plant response rating) of the same compound?
Answer: 80%

Question: And the pest or weed control at 125 g/ha (velvetleaf; Abutilon theophrasti, pre-emergence, 125 g ai/ha, preemergence, scale 0 (no effect) to 100 (complete control), read-out: Velvetleaf plant response rating)?
Answer: 100%

Question: And the pest or weed control at 62 g/ha (velvetleaf; Abutilon theophrasti, pre-emergence, Preemergence, 62 g ai/ha, scale 0 to 100, 0 no effect, 100 complete control, read-out: Plant response rating, Velvetleaf)?
Answer: 100%

Question: What about the pest or weed control at 16 g/ha (johnsongrass; Sorghum halepense, pre-emergence, 16 g ai/ha, preemergence, scale 0 to 100 (0 no effect, 100 complete control), read-out: Johnsongrass plant response rating) of the same compound?
Answer: 10%

Question: And the pest or weed control at 125 g/ha (johnsongrass; Sorghum halepense, pre-emergence, 125 g ai/ha, preemergence, scale 0 (no effect) to 100 (complete control), read-out: Johnsongrass plant response rating)?
Answer: 98%

Question: And the pest or weed control at 62 g/ha (johnsongrass; Sorghum halepense, pre-emergence, Preemergence, 62 g ai/ha, scale 0 to 100, 0 no effect, 100 complete control, read-out: Plant response rating, Johnsongrass)?
Answer: 95%

Question: And the pest or weed control at 16 g/ha (galium; Galium, pre-emergence, 16 g ai/ha, preemergence, scale 0 to 100 (0 no effect, 100 complete control), read-out: Galium plant response rating)?
Answer: 90%

Question: And the pest or weed control at 125 g/ha (galium; Galium, pre-emergence, 125 g ai/ha, preemergence, scale 0 (no effect) to 100 (complete control), read-out: Galium plant response rating)?
Answer: 98%

Question: What about the pest or weed control at 62 g/ha (galium; Galium, pre-emergence, Preemergence, 62 g ai/ha, scale 0 to 100, 0 no effect, 100 complete control, read-out: Plant response rating, Galium) of the same compound?
Answer: 98%

Question: What about the pest or weed control at 16 g/ha (blackgrass; Alopecurus myosuroides, pre-emergence, 16 g ai/ha, preemergence, scale 0 to 100 (0 no effect, 100 complete control), read-out: Blackgrass plant response rating) of the same compound?
Answer: 50%

Question: And the pest or weed control at 125 g/ha (blackgrass; Alopecurus myosuroides, pre-emergence, 125 g ai/ha, preemergence, scale 0 (no effect) to 100 (complete control), read-out: Blackgrass plant response rating)?
Answer: 90%

Question: And the pest or weed control at 62 g/ha (blackgrass; Alopecurus myosuroides, pre-emergence, Preemergence, 62 g ai/ha, scale 0 to 100, 0 no effect, 100 complete control, read-out: Plant response rating, Blackgrass)?
Answer: 90%

Question: And the pest or weed control at 16 g/ha (barnyardgrass; Echinochloa crus-galli, pre-emergence, 16 g ai/ha, preemergence, scale 0 to 100 (0 no effect, 100 complete control), read-out: Barnyardgrass plant response rating)?
Answer: 90%

Question: What about the pest or weed control at 125 g/ha (barnyardgrass; Echinochloa crus-galli, pre-emergence, 125 g ai/ha, preemergence, scale 0 (no effect) to 100 (complete control), read-out: Barnyardgrass plant response rating) of the same compound?
Answer: 100%

Question: What about the pest or weed control at 62 g/ha (barnyardgrass; Echinochloa crus-galli, pre-emergence, Preemergence, 62 g ai/ha, scale 0 to 100, 0 no effect, 100 complete control, read-out: Plant response rating, Barnyardgrass) of the same compound?
Answer: 100%

Question: What about the pest or weed control at 16 g/ha (morningglory; Ipomoea, pre-emergence, 16 g ai/ha, preemergence, scale 0 to 100 (0 no effect, 100 complete control), read-out: Morningglory plant response rating) of the same compound?
Answer: 35%

Question: What about the pest or weed control at 125 g/ha (morningglory; Ipomoea, pre-emergence, 125 g ai/ha, preemergence, scale 0 (no effect) to 100 (complete control), read-out: Morningglory plant response rating) of the same compound?
Answer: 100%

Question: And the pest or weed control at 62 g/ha (morningglory; Ipomoea, pre-emergence, Preemergence, 62 g ai/ha, scale 0 to 100, 0 no effect, 100 complete control, read-out: Plant response rating, Morningglory)?
Answer: 100%

Question: And the plant injury at 16 g/ha (wheat, winter; Triticum aestivum, pre-emergence, 16 g ai/ha, preemergence, scale 0 to 100 (0 no effect, 100 complete control), read-out: Wheat plant response rating)?
Answer: 20%

Question: What about the plant injury at 125 g/ha (wheat, winter; Triticum aestivum, pre-emergence, 125 g ai/ha, preemergence, scale 0 (no effect) to 100 (complete control), read-out: Wheat plant response rating) of the same compound?
Answer: 90%

Question: And the plant injury at 62 g/ha (wheat, winter; Triticum aestivum, pre-emergence, Preemergence, 62 g ai/ha, scale 0 to 100, 0 no effect, 100 complete control, read-out: Plant response rating, Wheat)?
Answer: 90%

Question: What about the pest or weed control at 16 g/ha (ragweed; Ambrosia artemisiifolia, pre-emergence, 16 g ai/ha, preemergence, scale 0 to 100 (0 no effect, 100 complete control), read-out: Ragweed plant response rating) of the same compound?
Answer: 10%

Question: What about the pest or weed control at 125 g/ha (ragweed; Ambrosia artemisiifolia, pre-emergence, 125 g ai/ha, preemergence, scale 0 (no effect) to 100 (complete control), read-out: Ragweed plant response rating) of the same compound?
Answer: 75%

Question: And the pest or weed control at 62 g/ha (ragweed; Ambrosia artemisiifolia, pre-emergence, Preemergence, 62 g ai/ha, scale 0 to 100, 0 no effect, 100 complete control, read-out: Plant response rating, Ragweed)?
Answer: 35%

Question: What about the plant injury at 16 g/ha (oilseed rape; Brassica napus, pre-emergence, 16 g ai/ha, preemergence, scale 0 to 100 (0 no effect, 100 complete control), read-out: Oilseed Rape plant response rating) of the same compound?
Answer: 80%

Question: And the plant injury at 125 g/ha (oilseed rape; Brassica napus, pre-emergence, 125 g ai/ha, preemergence, scale 0 (no effect) to 100 (complete control), read-out: Oilseed Rape plant response rating)?
Answer: 95%

Question: What about the plant injury at 62 g/ha (oilseed rape; Brassica napus, pre-emergence, Preemergence, 62 g ai/ha, scale 0 to 100, 0 no effect, 100 complete control, read-out: Plant response rating, Oilseed Rape) of the same compound?
Answer: 95%

Question: And the plant injury at 16 g/ha (soybean; Glycine max, pre-emergence, 16 g ai/ha, preemergence, scale 0 to 100 (0 no effect, 100 complete control), read-out: Soybean plant response rating)?
Answer: 35%

Question: What about the plant injury at 125 g/ha (soybean; Glycine max, pre-emergence, 125 g ai/ha, preemergence, scale 0 (no effect) to 100 (complete control), read-out: Soybean plant response rating) of the same compound?
Answer: 98%

Question: What about the plant injury at 62 g/ha (soybean; Glycine max, pre-emergence, Preemergence, 62 g ai/ha, scale 0 to 100, 0 no effect, 100 complete control, read-out: Plant response rating, Soybean) of the same compound?
Answer: 95%

Question: And the pest or weed control at 16 g/ha (lambsquarters; Chenopodium album, pre-emergence, 16 g ai/ha, preemergence, scale 0 to 100 (0 no effect, 100 complete control), read-out: Lambsquarters plant response rating)?
Answer: 100%

Question: And the pest or weed control at 125 g/ha (lambsquarters; Chenopodium album, pre-emergence, 125 g ai/ha, preemergence, scale 0 (no effect) to 100 (complete control), read-out: Lambsquarters plant response rating)?
Answer: 98%

Question: And the pest or weed control at 62 g/ha (lambsquarters; Chenopodium album, pre-emergence, Preemergence, 62 g ai/ha, scale 0 to 100, 0 no effect, 100 complete control, read-out: Plant response rating, Lambsquarters)?
Answer: 100%

Question: What about the pest or weed control at 16 g/ha (giant foxtail; Setaria faberi, pre-emergence, 16 g ai/ha, preemergence, scale 0 to 100 (0 no effect, 100 complete control), read-out: Foxtail, Giant plant response rating) of the same compound?
Answer: 98%

Question: And the pest or weed control at 125 g/ha (giant foxtail; Setaria faberi, pre-emergence, 125 g ai/ha, preemergence, scale 0 (no effect) to 100 (complete control), read-out: Foxtail, Giant plant response rating)?
Answer: 100%

Question: What about the pest or weed control at 62 g/ha (giant foxtail; Setaria faberi, pre-emergence, Preemergence, 62 g ai/ha, scale 0 to 100, 0 no effect, 100 complete control, read-out: Plant response rating, Foxtail, Giant) of the same compound?
Answer: 100%
